# Data as given in patent US7417045B2, “Heterocyclic substituted pyridine or phenyl compounds with CXCR3 antagonist activity” (Schering Corporation, priority 2005, dated 2008).
# pIC50: −log10 of the molar value.
# Target: T1, human CXCR3 (N-delta 4) (Homo sapiens, UniProt P49682)
# T1 construct: CD8 leader (N); Flag tag; expressed in transfected cells; membranes
# T1 sequence (P49682 5-368 limits assumed): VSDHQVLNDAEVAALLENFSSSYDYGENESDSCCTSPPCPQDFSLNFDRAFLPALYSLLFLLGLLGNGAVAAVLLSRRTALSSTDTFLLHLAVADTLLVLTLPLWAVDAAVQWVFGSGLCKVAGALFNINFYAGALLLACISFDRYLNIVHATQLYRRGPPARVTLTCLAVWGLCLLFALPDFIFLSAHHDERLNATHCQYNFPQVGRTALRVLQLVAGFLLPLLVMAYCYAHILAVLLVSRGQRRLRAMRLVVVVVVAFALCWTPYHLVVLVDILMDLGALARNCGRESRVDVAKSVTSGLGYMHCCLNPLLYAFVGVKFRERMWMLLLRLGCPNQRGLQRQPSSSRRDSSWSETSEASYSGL
# Test: Human CXCR3 (N-delta 4) Scintillation Proximity Assay (SPA), [125I] IP-10 binding
# Details: IC50 rating; [125I] IP-10 displacement, Ba/F3-hCXCR3 (N-delta 4) membranes
# From the text: The inventive compounds can readily be evaluated to determine activity at The CXCR3 receptors by known methods, such as, for example, Development of Human CXCR3 (N-delta 4) Binding Assay.
# Cloning and Expression of Human CXCR3 (N-Delta 4):
# The DNA encoding human CXCR3 was cloned by PCR using human genomic DNA (Promega, Madison, Wis.) as a template. The PCR primers were designed based on the published sequence of human orphan receptor GPR9 (1) with incorporated restriction sites, a Kozak consensus sequence, CD8 leader and Flag tag. The PCR product was subcloned into the mammalian expression vector pME18Sneo, a derivative of the SR-alpha expression vector (designated as pME18Sneo-hCXCR3 (N-delta 4).
# IL-3-dependent mouse pro-B cells Ba/F3 were transfected by electroporation in 0.4 ml Dulbecco's PBS containing 4×10^6 cells with 20 μg of pME18Sneo-hCXCR3 (N-delta 4) plasmid DNA. Cells were pulsed at 400 Volts, 100 OHMs, 960 μFd. The transfected cells were under selection with 1 mg/ml G418 (Life Technologies, Gaithersburg, Md.). G418-resistant Ba/F3 clones were screened for CXCR3 expression by specific binding of [^125I] IP-10 (NEN Life Science Products, Boston, Mass.).
# Preparation of Ba/F3-hCXCR3 (N-Delta 4) Membranes
# Ba/F3 cells expressing human CXCR3 (N-delta 4) were pelleted and resuspended in the lysis buffer containing 10 mM HEPES, pH 7.5 and Complete® protease inhibitors (1 tablet per 100 ml) (Boehringer Mannheim, Indianapolis, Ind.) at a cell density of 20×10^6 cells per ml. After 5 minutes incubation on ice, cells were transferred to 4639 cell disruption bomb (Parr Instrument, Moline, Ill.) and applied with 1,500 psi of nitrogen for 30 minutes on ice. Large cellular debris was removed by centrifugation at 1,000× g. Cell membrane in the supernatant was sedimented at 100,000× g. The membrane was resuspended in the lysis buffer supplemented with 10% sucrose and stored at −80° C. Total protein concentration of the membrane was determined by BCA method from Pierce (Rockford, Ill.).
# Human CXCR3 (N-Delta 4) Scintillation Proximity Assay (SPA)
# For each assay point, 2 μg of membrane was preincubated for 1 hr with 300 μg wheat germ agglutinin (WGA) coated SPA beads (Amersham, Arlington Heights, Ill.) in the binding buffer (50 mM HEPES, 1 mM CaCl2, 5 mM MgCl2, 125 mM NaCl, 0.002% NaN3, 1.0% BSA) at room temperature. The beads were spun down, washed once, resuspended in the binding buffer and transferred to a 96-well Isoplate (Wallac, Gaithersburg, Md.). 25 pM of [^125I] IP-10 with tested compounds in a series of titration were added to start the reaction. After 3 hr reaction at room temperature, the amount of [^125I] IP-10 bound to the SPA beads was determined with a Wallac 1450 Microbeta counter.
row,Compound,pIC50
1,CC[C@H]1CN(c2ncc(-c3nnc(CO)o3)cc2Cl)CCN1C1CCN(C(C(=O)OC)c2ccc(Cl)cc2)CC1 (stereo partly shown) [Compound 124],7.00 to 7.60
2,CC[C@H]1CN(c2ncc(C3=NCCN3)cc2Cl)CCN1C1CCN(Cc2ccc(C#CC(C)(C)NS(=O)(=O)NC(=O)OC(C)(C)C)cc2)CC1 [Compound 147],< 7.00
3,CC[C@H]1CN(c2ncc(C3=NCCN3)cc2Cl)CCN1C1CCN(Cc2ccc(C#CC(C)(C)O)cc2)CC1 [Compound 54],> 7.60
4,CC[C@H]1CN(c2ncc(-c3ncc[nH]3)cc2Cl)CCN1C1(C)CCN(Cc2ccc(Cl)cc2C(=O)NC)CC1 [Compound 130],7.00 to 7.60
5,CCOC(=O)C1CC1c1ccc(CN2CCC(N3CCN(c4ncc(C5=NCCN5)cc4Cl)C[C@@H]3CC)CC2)cc1 (stereo partly shown) [Compound 75],> 7.60
6,CC[C@H]1CN(c2ncc(C3=NCCN3)cc2Cl)CCN1C1CCN(Cc2ccc(Cl)cc2F)CC1 [Compound 26],> 7.60
7,Fc1cc(Cl)ccc1CN1CCC(N2CCN(c3ncc(-c4ncc[nH]4)cc3Cl)CC2C2CC2)CC1 (stereo not shown) [Compound 77],> 7.60
8,CC[C@H]1CN(c2ncc(-c3nnc(N)o3)cc2C(F)(F)F)[C@H](C)CN1C1CCN(Cc2ccc(OC(F)(F)F)cc2)CC1 [Compound 175],> 7.60
9,CC[C@H]1CN(c2ncc(-c3cnc(N)s3)cc2Cl)CCN1C1CCN(C(=O)c2ccc(Cl)cc2)CC1 [Compound 167],< 7.00
10,CC[C@H]1CN(c2ncc(C3=NCCN3)cc2Cl)CCN1C1CCN(Cc2ccc(Cl)cc2C(=O)NCCO)CC1 [Compound 94],> 7.60
11,CC[C@H]1CN(c2ncc(-c3ncc[nH]3)cc2Cl)CCN1C1CCN(C(=O)c2ccc(-n3ccc(C(F)(F)F)n3)cc2)CC1 [Compound 157],< 7.00
12,CC[C@H]1CN(c2ncc(-c3nccn3C)cc2Cl)CCN1C1CCN(Cc2ccc(Cl)cc2F)CC1 [Compound 122],7.00 to 7.60
13,CC[C@H]1CN(c2ncc(-c3ncc[nH]3)cc2Cl)CCN1[C@@H]1CCN(Cc2ccc(Cl)cc2C(=O)NC)C[C@H]1O [Compound 170],< 7.00
14,CC[C@H]1CN(c2ncc(C3NC(=O)NC3=O)cc2Cl)CCN1C1CCN(Cc2ccc(Cl)cc2)CC1 (stereo partly shown) [Compound 119],7.00 to 7.60
15,CC[C@H]1CN(c2ncc(C3=NCCCN3)cc2Cl)CCN1C1CCN(C(=O)c2ccc(Cl)cc2)CC1 [Compound 118],7.00 to 7.60
16,CC[C@H]1CN(c2ncc(C3=NCCN3)cc2Cl)CCN1C1CCN(C(=O)c2ccc(Cl)nc2N)CC1 [Compound 42],> 7.60
17,CC[C@H]1CN(c2ncc(-c3ncc[nH]3)cc2Cl)CCN1C1(C)CCN(C(CO)c2ccc(Cl)cc2)CC1 (stereo partly shown) [Compound 38],> 7.60
18,CC[C@H]1CN(c2ncc(-c3nc(C(O)C(F)(F)F)c[nH]3)cc2Cl)CCN1C1CCN(Cc2ccc(Cl)cc2F)CC1 (stereo partly shown) [Compound 80],> 7.60
19,CC[C@H]1CN(c2ncc(-c3ncc[nH]3)cc2Cl)CCN1C1(C)CCN(Cc2ccc(Cl)cc2C(=O)OC)CC1 [Compound 151],< 7.00
20,CC[C@H]1CN(c2ncc(-c3nnc(N)o3)cc2C)[C@H](C)CN1C1CCN(Cc2ccc(OC(F)(F)F)cc2)CC1 [Compound 174],> 7.60
21,CC[C@H]1CN(c2ncc(-c3nc(C(O)C(F)(F)F)c[nH]3)cc2Cl)CCN1C1CCN(C(=O)c2ccc(Cl)cc2)CC1 (stereo partly shown) [Compound 125],7.00 to 7.60
22,CC[C@H]1CN(c2ncc(C3=NCCN3)cc2Cl)CCN1C1CCN(C(=O)c2ccc(C#CC(C)(C)NC(=O)OC(C)(C)C)cc2)CC1 [Compound 123],7.00 to 7.60
23,CC[C@H]1CN(c2ncc(C3=NC(C)CN3)cc2Cl)CCN1C1CCN(C(=O)c2ccc(Cl)cc2N)CC1 (stereo partly shown) [Compound 45],> 7.60

# Further lines, results first:
row,pIC50,Compound
1,> 7.60,CC[C@H]1CN(c2ncc(-c3ncc[nH]3)cc2Cl)CCN1C1CCN(C(=O)c2ccc(C#N)cc2)CC1 [Compound 74]
2,> 7.60,CC[C@H]1CN(c2ncc(-c3ncc[nH]3)cc2Cl)CCN1C1CCN(CCC(=O)c2ccc(Cl)cc2)CC1 [Compound 95]
3,> 7.60,CC[C@H]1CN(c2ncc(-c3ncc[nH]3)cc2Cl)CCN1C1CCN(C(=O)c2ccc(Cl)cc2)CC1 [Compound 47]
4,< 7.00,CC[C@H]1CN(c2ncc(-c3ncc[nH]3)cc2Cl)CCN1C1CCN(C(=O)c2ccc(-n3c(C)ccc3C)cc2)CC1 [Compound 136]
5,> 7.60,CC[C@H]1CN(c2ncc(-c3ncc[nH]3)cc2Cl)CCN1C1CCN(C(CO)c2ccc(Cl)cc2)CC1 (stereo partly shown) [Compound 18]
6,> 7.60,CC[C@H]1CN(c2ncc(-c3ncc[nH]3)cc2Cl)CCN1C1CCN(Cc2ccc(Cl)cc2-c2ncc[nH]2)CC1 [Compound 28]
7,< 7.00,CC[C@H]1CN(c2ncc(-c3ncc[nH]3)cc2Cl)CCN1C1CCN([C@H](C(=O)OC)c2ccc(Cl)cc2)CC1 [Compound 133]
8,< 7.00,CC[C@H]1CN(c2ncc(-c3ncc[nH]3)cc2Cl)CCN1C1CCN(Cc2ccc(C#CC(C)(C)NS(C)(=O)=O)cc2)CC1 [Compound 137]
9,< 7.00,CC[C@H]1CN(c2ncc(-c3ncc[nH]3)cc2Cl)CCN1C1CCN(C(=O)c2ccc(-c3ccccc3)cc2)CC1 [Compound 132]
10,> 7.60,CC[C@H]1CN(c2ncc(-c3ncc[nH]3)cc2Cl)CCN1C1CCN(Cc2ccc(Cl)cc2C#N)CC1 [Compound 33]
11,< 7.00,CC[C@H]1CN(c2ncc(-c3ncc[nH]3)cc2Cl)CCN1C1CCN([C@H](C(=O)NCC(F)(F)F)c2ccc(Cl)cc2)CC1 [Compound 155]
12,< 7.00,CC[C@H]1CN(c2ncc(-c3ncc[nH]3)cc2Cl)CCN1C1CCN(Cc2ccc(C(N)=O)cc2)CC1 [Compound 148]
13,> 7.60,CC[C@H]1CN(c2ncc(-c3ncc[nH]3)cc2Cl)CCN1C1CCN(Cc2ccc(Cl)cc2)CC1 [Compound 1]
14,7.00 to 7.60,CC[C@H]1CN(c2ncc(-c3ncc[nH]3)cc2Cl)CCN1C1CCN(C(=O)c2ccc(-c3cnco3)cc2)CC1 [Compound 117]
15,> 7.60,CC[C@H]1CN(c2ncc(-c3ncc[nH]3)cc2Cl)CCN1C1CCN(Cc2ccc(C#CC(C)(C)O)cc2)CC1 [Compound 23]
16,> 7.60,CC[C@H]1CN(c2ncc(-c3ncc[nH]3)cc2Cl)CCN1C1CCN(C(=O)c2ccc(Cl)cc2O)CC1 [Compound 78]
17,> 7.60,CC[C@H]1CN(c2ncc(-c3ncc[nH]3)cc2Cl)CCN1C1CCN(Cc2ccc(C#CCN(C)C)cc2)CC1 [Compound 100]
18,> 7.60,CC[C@H]1CN(c2ncc(-c3ncc[nH]3)cc2Cl)CCN1C1CCN(Cc2ccc(Cl)cc2-c2n[nH]c(=O)o2)CC1 [Compound 57]
19,< 7.00,CC[C@H]1CN(c2ncc(-c3ncc[nH]3)cc2Cl)CCN1C1CCN(C(=O)c2ccc(-n3cncn3)cc2)CC1 [Compound 135]
20,> 7.60,CC[C@H]1CN(c2ncc(-c3ncc[nH]3)cc2Cl)CCN1C1CCN(Cc2ccc(Cl)cc2/C(N)=N/O)CC1 [Compound 6]
21,> 7.60,CC[C@H]1CN(c2ncc(-c3ncc[nH]3)cc2Cl)CCN1C1CCN(Cc2ccc(-c3ccccc3)cc2)CC1 [Compound 37]
22,> 7.60,CC[C@H]1CN(c2ncc(-c3ncc[nH]3)cc2Cl)CCN1C1CCN(Cc2ccc(C(=O)OC)cc2)CC1 [Compound 16]
23,7.00 to 7.60,CC[C@H]1CN(c2ncc(-c3ncc[nH]3)cc2Cl)CCN1C1CCN(C(=O)c2ccc(C#CC(C)(C)O)cc2)CC1 [Compound 113]
24,< 7.00,CC[C@H]1CN(c2ncc(-c3ncc[nH]3)cc2Cl)CCN1C1CCN(C(=O)C2(c3ccc(Cl)cc3)CC2)CC1 [Compound 154]
25,> 7.60,CC[C@H]1CN(c2ncc(-c3ncc[nH]3)cc2Cl)CCN1C1CCN([C@@H](C(=O)N(C)C)c2ccc(Cl)cc2)CC1 [Compound 97]

# Same assay, conditions: [125I] IP-10 displacement, Ba/F3-hCXCR3 (N-delta 4) membranes
row,pIC50,Compound
1,9.70,CC[C@H]1CN(c2ncc(-c3ncc[nH]3)cc2Cl)CCN1C1CCN(Cc2ccc(Cl)cc2)CC1 [Compound 1]
